Data published in patent publication US12509424B2, “Compound and composition as PDGF receptor kinase inhibitor” (NIPPON SHINYAKU CO., LTD., priority 2019, dated 2025).

Assays:
[1] = molecular target: TEL-KIT fusion gene transfected cells (Ba/F3); assay: Suppression of proliferation of TEL-KIT fusion gene transfected Ba/F3 cells; details: read-out: KIT/BaF3 proliferation inhibition (IC50); TEL-KIT expressing Ba/F3 cells, 72 hours, final concentration 0.1 to 10,000 nM;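 also: viable cells quantified via formazan from tetrazolium reduction, inhibition scaled with 0.1% DMSO control as 0% and medium-only blank as 100%, IC50 from two-parameter logistic fit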
Chain of TEL-KIT fusion gene transfected cells (Ba/F3) (P10721 26-976 limits assumed, change not shown): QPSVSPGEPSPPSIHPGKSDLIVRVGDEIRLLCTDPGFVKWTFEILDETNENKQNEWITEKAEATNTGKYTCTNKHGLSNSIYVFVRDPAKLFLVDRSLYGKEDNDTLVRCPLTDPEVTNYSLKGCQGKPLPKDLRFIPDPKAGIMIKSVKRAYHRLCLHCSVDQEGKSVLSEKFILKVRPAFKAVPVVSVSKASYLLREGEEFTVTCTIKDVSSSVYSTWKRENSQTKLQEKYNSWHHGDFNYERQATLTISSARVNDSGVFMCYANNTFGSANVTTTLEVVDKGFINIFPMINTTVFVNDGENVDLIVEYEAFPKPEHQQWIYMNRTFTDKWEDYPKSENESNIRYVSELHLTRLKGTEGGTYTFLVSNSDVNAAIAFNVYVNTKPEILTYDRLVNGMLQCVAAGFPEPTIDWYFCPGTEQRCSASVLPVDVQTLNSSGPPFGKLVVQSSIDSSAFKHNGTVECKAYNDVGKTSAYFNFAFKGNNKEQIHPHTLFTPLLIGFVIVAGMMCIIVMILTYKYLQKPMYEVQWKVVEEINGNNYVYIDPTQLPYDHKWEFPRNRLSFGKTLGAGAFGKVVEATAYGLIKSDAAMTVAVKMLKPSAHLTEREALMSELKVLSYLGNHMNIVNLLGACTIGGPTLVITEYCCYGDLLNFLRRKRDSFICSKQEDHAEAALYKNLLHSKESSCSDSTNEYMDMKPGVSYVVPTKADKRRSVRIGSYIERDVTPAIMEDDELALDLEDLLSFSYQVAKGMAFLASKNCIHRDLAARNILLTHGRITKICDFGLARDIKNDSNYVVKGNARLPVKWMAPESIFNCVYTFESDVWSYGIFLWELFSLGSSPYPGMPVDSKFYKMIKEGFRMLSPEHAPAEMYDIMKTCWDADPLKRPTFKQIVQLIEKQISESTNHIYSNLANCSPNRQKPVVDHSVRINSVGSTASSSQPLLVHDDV
Source text: Fabrication of TEL-PDGFRβ and TEL-KIT Fusion Gene Transfected Cells
Subsequently, the vectors for gene transfection were introduced using a transfection reagent (FuGENE6, Promega Corporation) into packaging cells derived from a human fetal kidney cell line, PLAT-E, in the logarithmic growth phase. Since the culture supernatant of PLAT-E after the gene transfection contained virus particles for gene transfection, it was collected and used as a medium for gene transfection. The medium for gene transfection was added to a plate coated with RetroNectin and incubated, and the virus particles were allowed to adhere to the plate. Thereafter, the mouse pro-B cell line Ba/F3 in the logarithmic growth phase was seeded onto the plate and infected with the virus to fabricate cells that proliferate in a PDGFRβ or KIT dependent manner.
The test substance was prepared with dimethyl sulfoxide (DMSO) to 10 mM and diluted with DMSO so as to reach a concentration of 0.0001 to 3 mM. Furthermore, it was diluted by 100 times with distilled water.
Measurement of Suppression Action Against Proliferation of TEL-PDGFRβ or TEL-KIT Expressing Cells
The day after TEL-PDGFRβ and TEL-KIT expressing cells were seeded onto 96 well plates, the prepared test substance solution was added thereto with a final concentration being 0.1 to 10,000 nM. After 72 hours, the viable cell count was measured using the amount of formazan generated from the reduction of a tetrazolium salt compound by the mitochondrial dehydrogenase of viable cells as an indicator.
Based on the amount of formazan in each condition, the suppression rate against cell proliferation was calculated when the amounts of formazan in the negative control (0.1% DMSO solution) and Blank (medium only) were defined as 0% and 100%, respectively. Subsequently, a nonlinear regression analysis with a two parameter logistic model for the log dose and suppression rate against cell proliferation was carried out using the SAS system (SAS Institute Inc.) to estimate the IC50 value.

PDGFR-β = PDGFR-β (Homo sapiens (Human), UniProt P09619); assay: PDGFR-β tyrosine kinase inhibitory action (HTRF KinEASE-TK); type: biochemical; details: PDGFR-β enzyme 1 ng/μL, 30° C. for 30 minutes; read-out: PDGF-β IC50
Chain of PDGFR-β (P09619 33-1106): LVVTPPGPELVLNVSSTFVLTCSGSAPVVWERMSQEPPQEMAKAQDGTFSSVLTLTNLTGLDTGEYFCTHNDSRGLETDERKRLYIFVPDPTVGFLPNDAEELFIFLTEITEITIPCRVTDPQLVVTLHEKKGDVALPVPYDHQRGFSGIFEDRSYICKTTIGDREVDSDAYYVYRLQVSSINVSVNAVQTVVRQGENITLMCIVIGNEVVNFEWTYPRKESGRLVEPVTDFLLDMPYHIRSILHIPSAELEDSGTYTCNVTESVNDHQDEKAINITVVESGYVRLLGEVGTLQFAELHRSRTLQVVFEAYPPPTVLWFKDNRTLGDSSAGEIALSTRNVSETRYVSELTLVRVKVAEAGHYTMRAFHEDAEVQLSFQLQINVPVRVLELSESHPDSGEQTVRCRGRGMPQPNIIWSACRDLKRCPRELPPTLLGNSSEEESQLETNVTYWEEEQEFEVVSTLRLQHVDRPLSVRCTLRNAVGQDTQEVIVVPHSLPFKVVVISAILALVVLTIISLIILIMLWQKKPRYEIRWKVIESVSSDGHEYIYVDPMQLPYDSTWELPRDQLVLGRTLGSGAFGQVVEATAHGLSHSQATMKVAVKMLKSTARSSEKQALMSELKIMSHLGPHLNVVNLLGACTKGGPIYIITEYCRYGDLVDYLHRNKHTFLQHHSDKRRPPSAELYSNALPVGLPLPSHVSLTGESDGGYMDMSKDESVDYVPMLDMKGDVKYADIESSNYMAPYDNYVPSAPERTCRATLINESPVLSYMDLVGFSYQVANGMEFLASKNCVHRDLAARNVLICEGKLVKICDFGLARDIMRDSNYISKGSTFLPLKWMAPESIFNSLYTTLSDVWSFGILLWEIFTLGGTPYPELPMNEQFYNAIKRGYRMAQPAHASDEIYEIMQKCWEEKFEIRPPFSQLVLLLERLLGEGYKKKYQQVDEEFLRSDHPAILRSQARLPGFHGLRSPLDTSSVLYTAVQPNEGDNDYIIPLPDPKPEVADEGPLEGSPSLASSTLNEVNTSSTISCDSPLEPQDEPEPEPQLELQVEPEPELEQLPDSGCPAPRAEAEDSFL
Summary of the method: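 Recombinant PDGFR-β at 1 ng/μL final with TK substrate-3-biotin in a substrate solution containing 0.6 μM ATP; buffer 50 mM HEPES pH 7.0, 5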

[2] = system: pulmonary arterial smooth muscle cells; assay: Suppression of proliferation of pulmonary arterial smooth muscle cells (PDGF-BB stimulation, BrdU); type: cell-based; details: PASMC, 24 h; healthy human derived pulmonary arterial smooth muscle cells; human PDGF-BB 10 ng/mL stimulation; BrdU uptake after 1 day; test substance final concentration 3 to 10,000 nM; read-out: Human normal PASMC proliferation suppression (PDGF stimulation_IC50)
Summary of the method: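 Test compound (final 3 to 10,000 nM) was added together with BrdU and PDGF-BB (final 10 ng/mL) to healthy human pulmonary artery smooth muscle cells held a day in 0.1% FBS. Proliferation was read after 1 day as anti-BrdU-detected BrdU incorporation.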

[3] = molecular target: TEL-PDGFRβ fusion gene transfected cells (Ba/F3); assay: Suppression of proliferation of TEL-PDGFRβ fusion gene transfected Ba/F3 cells; type: cell-based, human; details: TEL-PDGFRβ expressing Ba/F3 cells, 72 hours, final concentration 0.1 to 10,000 nM; read-out: PDGFR β/BaF3 proliferation inhibition (IC50)
Chain of TEL-PDGFRβ fusion gene transfected cells (Ba/F3) (P09619 33-1106 limits assumed, change not shown): as the sequence (P09619 33-1106) above
Source text: 2. Preparation of Test Substance
4. Analysis of Measurement Results

| SMILES | IC50 [1] | IC50 (PDGFR-β) | IC50 [2] | IC50 [3] |
| --- | --- | --- | --- | --- |
| Cc1ccc(C(=O)N[C@H]2CCCC[C@@H]2O)cc1NCc1cncc(Br)c1 [Example 91, 3-{[(5-bromopyridin-3-yl)methyl]amino}-N-[(1S,2S)-2-hydroxycyclohexyl]-4-methylbenzamide] | 2700 nM | 150 nM | 150 nM | 26 nM |
| Cc1ccc(C(=O)N[C@H]2CCCC[C@@H]2O)cc1NCc1cncc(-c2ccccc2)c1 [Example 92, N-[(1S,2S)-2-hydroxycyclohexyl]-4-methyl-3-{[(5-phenylpyridin-3-yl)methyl]amino}benzamide] | 1400 nM | 46 nM | 66 nM | 20 nM |
| Cc1ccc(C(=O)N[C@H]2CCCC[C@@H]2O)cc1NCc1cncc(C#CC2CC2)c1 [Example 94, 3-({[5-(cyclopropylethynyl)pyridin-3-yl]methyl}amino)-N-[(1S,2S)-2-hydroxycyclohexyl]-4-methylbenzamide] | 260 nM | 49 nM | 90 nM | 10 nM |
| Cc1ccc(C(=O)N[C@H]2CCCC[C@@H]2O)cc1NCc1cncc(-c2ncccn2)c1 [Example 95, N-[(1S,2S)-2-hydroxycyclohexyl]-4-methyl-3-({[5-(pyrimidin-2-yl)pyridin-3-yl]methyl}amino)benzamide] | 1000 nM | 120 nM | 96 nM | 5.7 nM |
| Cc1ccc(C(=O)N[C@H]2CCCC[C@@H]2O)cc1NCc1cnc2ccccc2c1 [Example 96, N-[(1S,2S)-2-hydroxycyclohexyl]-4-methyl-3-{[(quinolin-3-yl)methyl]amino}benzamide] | 310 nM | 200 nM | 72 nM | 12 nM |
| Cc1ccc(C(=O)N[C@H]2CCCC[C@@H]2O)cc1NCc1cncc(C#CC2(O)CC2)c1 [Example 97, N-[(1S,2S)-2-hydroxycyclohexyl]-3-[({5-[(1-hydroxycyclopropyl)ethynyl]pyridin-3-yl}methyl)amino]-4-methylbenzamide] | 1900 nM | 100 nM | 160 nM | 20 nM |
| Cc1ccc(C(=O)N[C@H]2CCCC[C@@H]2O)cc1NCc1cncc(-c2ccc(C(C)(C)N)cc2)c1 [Example 98, 3-[({5-[4-(2-aminopropan-2-yl)phenyl]pyridin-3-yl}methyl)amino]-N-[(1S,2S)-2-hydroxycyclohexyl]-4-methylbenzamide] | > 10000 nM | 140 nM | 160 nM | 40 nM |
| Cc1ccc(C(=O)N[C@H]2CCCC[C@@H]2O)cc1NCc1cncc(-c2ccc(N)cc2)c1 [Example 99, 3-({[5-(4-aminophenyl)pyridin-3-yl]methyl}amino)-N-[(1S,2S)-2-hydroxycyclohexyl]-4-methylbenzamide] | 480 nM | 13 nM | 27 nM | 0.5 nM |
| Cc1ccc(C(=O)N[C@H]2CCCC[C@@H]2O)cc1NCc1cncc(-c2cc(F)cc(F)c2)c1 [Example 100, 3-({[5-(3,5-difluorophenyl)pyridin-3-yl]methyl}amino)-N-[(1S,2S)-2-hydroxycyclohexyl]-4-methylbenzamide] | 8900 nM | 32 nM | 71 nM | 17 nM |
| Cc1ccc(C(=O)N[C@H]2CCCC[C@@H]2O)cc1NCc1cncc(-c2ccccc2)n1 [Example 101, N-[(1S,2S)-2-hydroxycyclohexyl]-4-methyl-3-{[(6-phenylpyrazin-2-yl)methyl]amino}benzamide] | 9000 nM | 170 nM | 71 nM | 56 nM |
| Cc1ccc(C(=O)N[C@H]2CCCC[C@@H]2O)cc1NCc1cncc(-c2cccs2)c1 [Example 102, N-[(1S,2S)-2-hydroxycyclohexyl]-4-methyl-3-({[5-(thiophen-2-yl)pyridin-3-yl]methyl}amino)benzamide] | 620 nM | 23 nM | 30 nM | 2 nM |
| Cc1ccc(C(=O)N[C@H]2CCCC[C@@H]2O)cc1NCc1cncc(-c2ccsc2)c1 [Example 103, N-[(1S,2S)-2-hydroxycyclohexyl]-4-methyl-3-({[5-(thiophen-3-yl)pyridin-3-yl]methyl}amino)benzamide] | 2500 nM | 50 nM | 40 nM | 4.1 nM |
| O=C(N[C@H]1CCCC[C@@H]1O)c1ccc(Cl)c(NCc2cncc(-c3ncccn3)c2)c1 [Example 104, 4-chloro-N-[(1S,2S)-2-hydroxycyclohexyl]-3-({[5-(pyrimidin-2-yl)pyridin-3-yl]methyl}amino)benzamide] | 3400 nM | 260 nM | 38 nM | 3.4 nM |
| Cc1ccc(C(=O)N[C@H]2CCCC[C@@H]2O)cc1NCc1cnn2ccsc12 [Example 105, N-[(1S,2S)-2-hydroxycyclohexyl]-4-methyl-3-{[(pyrazolo[5,1-b][1,3]thiazol-7-yl)methyl]amino}benzamide] | 920 nM | 230 nM | 28 nM | 4.7 nM |
| Cc1c(F)cc(C(=O)N[C@H]2CCCC[C@@H]2O)cc1NCc1cncc(-c2ncccn2)c1 [Example 106, 3-fluoro-N-[(1S,2S)-2-hydroxycyclohexyl]-4-methyl-5-({[5-(pyrimidin-2-yl)pyridin-3-yl]methyl}amino)benzamide] | 1300 nM | 67 nM | 140 nM | 2.1 nM |
| Cc1ccc(C(=O)N[C@H]2CCCC[C@@H]2O)cc1NCc1cncc(-c2ncc(F)cn2)c1 [Example 107, 3-({[5-(5-fluoropyrimidin-2-yl)pyridin-3-yl]methyl}amino)-N-[(1S,2S)-2-hydroxycyclohexyl]-4-methylbenzamide] | 1200 nM | 190 nM | 110 nM | 19 nM |
| Cc1ccc(C(=O)N[C@H]2CCCC[C@@H]2O)cc1NCc1cnc2ccsc2c1 [Example 108, N-[(1S,2S)-2-hydroxycyclohexyl]-4-methyl-3-{[(thieno[3,2-b]pyridin-6-yl)methyl]amino}benzamide] | 300 nM | 51 nM | 85 nM | 2.3 nM |
| Cc1ccc(C(=O)N[C@H]2CCCC[C@@H]2O)cc1NCc1cnn(-c2ccccn2)c1 [Example 112, N-[(1S,2S)-2-hydroxycyclohexyl]-4-methyl-3-({[1-(pyridin-2-yl)-1H-pyrazol-4-yl]methyl}amino)benzamide] | 250 nM | 39 nM | 26 nM | 1.3 nM |
| Cc1ccc(C(=O)N[C@H]2CCCC[C@@H]2O)cc1NCc1cnc(N)nc1 [Example 113, 3-{[(2-aminopyrimidin-5-yl)methyl]amino}-N-[(1S,2S)-2-hydroxycyclohexyl]-4-methylbenzamide] | 700 nM | 83 nM | 51 nM | 0.2 nM |
| Cc1ccc(C(=O)N[C@H]2CCCC[C@@H]2O)cc1NCc1cnc(NC2CC2)nc1 [Example 114, 3-({[2-(cyclopropylamino)pyrimidin-5-yl]methyl}amino)-N-[(1S,2S)-2-hydroxycyclohexyl]-4-methylbenzamide] | 960 nM | 270 nM | 190 nM | 2.7 nM |
| Cc1ccc(C(=O)N[C@H]2CCCC[C@@H]2O)cc1NCc1cncc(-c2cnccn2)c1 [Example 115, N-[(1S,2S)-2-hydroxycyclohexyl]-4-methyl-3-({[5-(pyrazin-2-yl)pyridin-3-yl]methyl}amino)benzamide] | 1700 nM | 260 nM | 290 nM | 1.4 nM |
| Cc1ccc(C(=O)N[C@H]2CCCC[C@@H]2O)cc1CNc1cncc(-c2cccnc2)c1 [Example 146, 3-{[([3,3′-bipyridin]-5-yl)amino]methyl}-N-[(1S,2S)-2-hydroxycyclohexyl]-4-methylbenzamide] | 730 nM | 210 nM | 44 nM | 22 nM |
| Cc1ccc(C(=O)N[C@H]2CCCC[C@@H]2O)cc1CNc1cncc(-c2ncccn2)c1 [Example 147, N-[(1S,2S)-2-hydroxycyclohexyl]-4-methyl-3-({[5-(pyrimidin-2-yl)pyridin-3-yl]amino}methyl)benzamide] | 100 nM | 24 nM | 52 nM | 5.6 nM |
| Cc1ccc(C(=O)N[C@H]2CCCC[C@@H]2O)cc1CNc1cncc(-c2ccccn2)c1 [Example 148, 3-{[([2,3′-bipyridin]-5′-yl)amino]methyl}-N-[(1S,2S)-2-hydroxycyclohexyl]-4-methylbenzamide] | 170 nM | 16 nM | 110 nM | 2.4 nM |
| Cc1ccc(C(=O)N[C@@H]2CCCC[C@H]2O)cc1CNc1cncc(-c2ncccn2)c1 [Example 149, N-[(1R,2R)-2-hydroxycyclohexyl]-4-methyl-3-({[5-(pyrimidin-2-yl)pyridin-3-yl]amino}methyl)benzamide] | 670 nM | 220 nM | 150 nM | 58 nM |
